Values joined by “and” are separate entries in the source; they are usually repeats but may differ in a detail not shown here. Equal values may be shown once. Toxic doses and inconclusive results are not listed.
Test system: P388 leukemia ip, CD2F1 mice, survival T/C
Assay: NCI In Vivo Anticancer Drug Screen. Data for tumor model P388 Leukemia (intraperitoneal) in CD2F1 (CDF1) mice
Conditions: endpoint: median survival time, higher = longer survival
In short: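 Mice carrying the transplanted tumor received test compound or vehicle. Survival was recorded in each group, and the value is the treated-group measurement divided by that of the vehicle-treated control group.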

[1] = dose: 50.0 mg/kg/injection, schedule: Q01DX005 (ip), vehicle: saline with Tween-80
[2] = dose: 100.0 mg/kg/injection, schedule: Q01DX005 (ip), vehicle: saline with Tween-80
[3] = dose: 100.0 mg/kg/injection, schedule: Q01DX009 (ip), vehicle: saline with Tween-80
[4] = dose: 200.0 mg/kg/injection, schedule: Q01DX009 (ip), vehicle: saline with Tween-80
[5] = dose: 60.0 mg/kg/injection, schedule: Q01DX005 (ip), vehicle: saline with Tween-80
[6] = dose: 120.0 mg/kg/injection, schedule: Q01DX005 (ip), vehicle: saline with Tween-80
[7] = dose: 240.0 mg/kg/injection, schedule: Q01DX005 (ip), vehicle: saline with Tween-80
[8] = dose: 50.0 mg/kg/injection, schedule: Q01DX009 (ip), vehicle: saline
[9] = dose: 50.0 mg/kg/injection, schedule: Q01DX009 (ip), vehicle: saline with Tween-80
[10] = dose: 50.0 mg/kg/injection, schedule: Q01DX005 (ip), vehicle: saline
[11] = dose: 100.0 mg/kg/injection, schedule: Q01DX005 (ip), vehicle: saline
[12] = dose: 100.0 mg/kg/injection, schedule: Q01DX009 (ip), vehicle: saline
[13] = dose: 200.0 mg/kg/injection, schedule: Q01DX009 (ip), vehicle: saline
[14] = dose: 60.0 mg/kg/injection, schedule: Q01DX005 (ip), vehicle: Klucel (hydroxypropylcellulose) (HPC)
[15] = dose: 120.0 mg/kg/injection, schedule: Q01DX005 (ip), vehicle: Klucel (hydroxypropylcellulose) (HPC)
[16] = dose: 240.0 mg/kg/injection, schedule: Q01DX005 (ip), vehicle: Klucel (hydroxypropylcellulose) (HPC)

## Nc1c(Br)cc(Br)c2c1C(=O)c1c(cccc1S(=O)(=O)O)C2=O
[1]
  T/C: 102 % of control
[2]
  T/C: 98 % of control
dose: 200.0 mg/kg/injection, schedule: Q01DX005 (ip), vehicle: saline with Tween-80
  T/C: 107 % of control

## C[Si](C)(CCl)N[Si](C)(C)CCl
dose: 50.0 mg/kg/injection, schedule: Q01DX009 (ip), vehicle: suspension in saline
  T/C: 100 % of control
[3]
  T/C: 100 % of control
dose: 100.0 mg/kg/injection, schedule: Q01DX009 (ip), vehicle: suspension in saline
  T/C: 98 % of control
[4]
  T/C: 96 % of control
dose: 200.0 mg/kg/injection, schedule: Q01DX009 (ip), vehicle: suspension in saline
  T/C: 105 % of control
dose: 400.0 mg/kg/injection, schedule: Q01DX009 (ip), vehicle: saline with Tween-80
  T/C: 122 % of control

## CC(=O)OCC1OC(CCC#N)C(OC(C)=O)C(OC(C)=O)C1OC(C)=O (stereo unspecified)
[5]
  T/C: 102 % of control and 100 % of control
dose: 60.0 mg/kg/injection, schedule: Q01DX005 (ip), vehicle: saline
  T/C: 102 % of control
[6]
  T/C: 98 % of control and 108 % of control
dose: 120.0 mg/kg/injection, schedule: Q01DX005 (ip), vehicle: saline
  T/C: 101 % of control
[7]
  T/C: 100 % of control and 102 % of control
dose: 240.0 mg/kg/injection, schedule: Q01DX005 (ip), vehicle: saline
  T/C: 101 % of control

## C[N+](C)(C)CC(O)c1ccc(O)c(O)c1 (stereo unspecified)
dose: 6.25 mg/kg/injection, schedule: Q01DX009 (ip), vehicle: saline
  T/C: 113 % of control
dose: 12.5 mg/kg/injection, schedule: Q01DX009 (ip), vehicle: saline
  T/C: 100 % of control
dose: 25.0 mg/kg/injection, schedule: Q01DX009 (ip), vehicle: saline
  T/C: 97 % of control
[8]
  T/C: 100 % of control

## COC(=O)c1cc2cc(OC)c(OC)cc2c2ccccc12
[1]
  T/C: 90 % of control
[2]
  T/C: 90 % of control

## O=C(Nc1ccc(Cl)cc1)Nc1nnc2nc(CC(=O)c3ccccc3)c(=O)[nH]n12
[5]
  T/C: 98 % of control
[6]
  T/C: 99 % of control
[7]
  T/C: 91 % of control

## O=c1[nH]c2cc([N+](=O)[O-])ccc2nc1/C=C(\O)c1ccncc1
dose: 60.0 mg/kg/injection, schedule: Q01DX005 (ip), vehicle: Klucel + Tween-80
  T/C: 94 % of control
dose: 120.0 mg/kg/injection, schedule: Q01DX005 (ip), vehicle: Klucel + Tween-80
  T/C: 88 % of control
dose: 240.0 mg/kg/injection, schedule: Q01DX005 (ip), vehicle: Klucel + Tween-80
  T/C: 100 % of control

## C#CC(OC(=O)NC1CCCCC1)(c1ccccc1)c1ccccc1
dose: 4.4 mg/kg/injection, schedule: Q01DX009 (ip), vehicle: saline with Tween-80
  T/C: 100 % of control
dose: 6.6 mg/kg/injection, schedule: Q01DX009 (ip), vehicle: saline with Tween-80
  T/C: 98 % of control
dose: 10.0 mg/kg/injection, schedule: Q01DX009 (ip), vehicle: saline with Tween-80
  T/C: 93 % of control
dose: 15.0 mg/kg/injection, schedule: Q01DX009 (ip), vehicle: saline with Tween-80
  T/C: 100 % of control
dose: 22.0 mg/kg/injection, schedule: Q04DX003 (ip), vehicle: saline with Tween-80
  T/C: 118 % of control
dose: 25.0 mg/kg/injection, schedule: Q04DX003 (ip), vehicle: saline with Tween-80
  T/C: 108 % of control
dose: 33.0 mg/kg/injection, schedule: Q01DX009 (ip), vehicle: saline with Tween-80
  T/C: 163 % of control
dose: 33.0 mg/kg/injection, schedule: Q04DX003 (ip), vehicle: saline with Tween-80
  T/C: 122 % of control
[9]
  T/C: 102 % of control
dose: 75.0 mg/kg/injection, schedule: Q04DX003 (ip), vehicle: saline with Tween-80
  T/C: 163 % of control

## CC(C)=C(C)OS(=O)(=O)C(F)(F)F
dose: 50.0 mg/kg/injection, schedule: Q01DX009 (ip), vehicle: olive oil, sesame oil, peanut oil
  T/C: 102 % of control
dose: 100.0 mg/kg/injection, schedule: Q01DX009 (ip), vehicle: olive oil, sesame oil, peanut oil
  T/C: 114 % of control
dose: 200.0 mg/kg/injection, schedule: Q01DX009 (ip), vehicle: olive oil, sesame oil, peanut oil
  T/C: 96 % of control

## C=CCN(CC=C)P(=O)(N1CC1)N1CC1C (stereo unspecified)
dose: 0.6 mg/kg/injection, schedule: Q01DX009 (ip), vehicle: saline
  T/C: 189 % of control
dose: 0.9 mg/kg/injection, schedule: Q01DX009 (ip), vehicle: saline
  T/C: 174 % of control

## O=C(NC(Cc1ccc(Br)cc1)C(=O)O)c1cccc(Cl)c1 (stereo unspecified)
[10]
  T/C: 100 % of control
[11]
  T/C: 101 % of control

## Cn1cc(-c2ccc3c(c2)OCO3)c2ccccc21
[5]
  T/C: 100 % of control
[6]
  T/C: 100 % of control
[7]
  T/C: 101 % of control

## O=C1C(Br)CCC1(c1ccccc1)c1ccccc1 (stereo unspecified)
dose: 100.0 mg/kg/injection, schedule: Q01DX001 (ip), vehicle: Klucel (hydroxypropylcellulose) (HPC)
  T/C: 102 % of control
dose: 200.0 mg/kg/injection, schedule: Q01DX001 (ip), vehicle: Klucel (hydroxypropylcellulose) (HPC)
  T/C: 106 % of control
dose: 400.0 mg/kg/injection, schedule: Q01DX001 (ip), vehicle: Klucel (hydroxypropylcellulose) (HPC)
  T/C: 102 % of control

## CCOP(=O)(CC(=O)O)OCC
[8]
  T/C: 100 % of control
[12]
  T/C: 102 % of control
[13]
  T/C: 93 % of control

## Cn1c(=O)c2nc(-c3ccc(Cl)c(Cl)c3)oc2n(C)c1=O
[8]
  T/C: 109 % of control
[12]
  T/C: 111 % of control
[13]
  T/C: 100 % of control

## CC(=N)C1C(=O)C=C(C)OC1=O (stereo unspecified)
[8]
  T/C: 86 % of control
[12]
  T/C: 88 % of control
[13]
  T/C: 88 % of control

## CC1(C)COC(=O)/C1=C1\SC(=S)NC1=O
dose: 100.0 mg/kg/injection, schedule: Q04DX003 (ip), vehicle: saline
  T/C: 103 % of control
dose: 200.0 mg/kg/injection, schedule: Q04DX003 (ip), vehicle: saline
  T/C: 92 % of control

## COc1cc(C(=O)Nc2cccc(Cl)c2Cl)cc(OC)c1OC
dose: 50.0 mg/kg/injection, schedule: Q01DX005 (ip), vehicle: Klucel (hydroxypropylcellulose) (HPC)
  T/C: 104 % of control
dose: 100.0 mg/kg/injection, schedule: Q01DX005 (ip), vehicle: Klucel (hydroxypropylcellulose) (HPC)
  T/C: 96 % of control
dose: 200.0 mg/kg/injection, schedule: Q01DX005 (ip), vehicle: Klucel (hydroxypropylcellulose) (HPC)
  T/C: 92 % of control

## COc1ccc(N2C(=O)C(N=Nc3ccc(S(=O)(=O)Nc4ncccn4)cc3)C(=O)N(c3ccccc3)C2=S)cc1 (stereo unspecified)
[10]
  T/C: 103 % of control
[11]
  T/C: 95 % of control
dose: 200.0 mg/kg/injection, schedule: Q01DX005 (ip), vehicle: saline
  T/C: 98 % of control

## CNC(=O)CC(C(=O)O)N(C)C (stereo unspecified)
dose: 50.0 mg/kg/injection, schedule: Q01DX009 (ip), vehicle: water
  T/C: 98 % of control
dose: 100.0 mg/kg/injection, schedule: Q01DX009 (ip), vehicle: water
  T/C: 106 % of control
dose: 200.0 mg/kg/injection, schedule: Q01DX009 (ip), vehicle: water
  T/C: 107 % of control

## CC(C)(C)N=C(CCN1CCCCC1)Nc1ccc(Cl)cc1
[9]
  T/C: 113 % of control
[3]
  T/C: 112 % of control
[4]
  T/C: 111 % of control

## Nc1[nH]c(=S)[nH]c(=O)c1NS(=O)(=O)c1ccccc1[N+](=O)[O-]
dose: 30.0 mg/kg/injection, schedule: Q01DX005 (ip), vehicle: Klucel (hydroxypropylcellulose) (HPC)
  T/C: 100 % of control and 94 % of control
[14]
  T/C: 98 % of control and 100 % of control
[15]
  T/C: 100 % of control and 97 % of control
[16]
  T/C: 100 % of control

## C1=C(B2OCCNO2)CCCC1
dose: 100.0 mg/kg/injection, schedule: Q01DX001 (ip), vehicle: saline
  T/C: 101 % of control
dose: 200.0 mg/kg/injection, schedule: Q01DX001 (ip), vehicle: saline
  T/C: 96 % of control
dose: 400.0 mg/kg/injection, schedule: Q01DX001 (ip), vehicle: saline
  T/C: 104 % of control

## N#CC1=C(N)OC(C2CC2)=C(C#N)C1c1ccco1 (stereo unspecified)
[14]
  T/C: 88 % of control
[15]
  T/C: 88 % of control

## CCN(CC)CCCC(C)NC(=O)Nc1cc(OC)cc2cccnc12 (stereo unspecified)
dose: 12.5 mg/kg/injection, schedule: Q01DX005 (ip), vehicle: saline
  T/C: 107 % of control
dose: 25.0 mg/kg/injection, schedule: Q01DX005 (ip), vehicle: saline
  T/C: 108 % of control
[10]
  T/C: 104 % of control and 106 % of control

## N=C1C=CC2C(=Nc3ccccc3[N+]2=O)N1CCO (stereo unspecified)
dose: 15.0 mg/kg/injection, schedule: Q01DX005 (ip), vehicle: saline with Tween-80
  T/C: 99 % of control and 105 % of control
dose: 30.0 mg/kg/injection, schedule: Q01DX005 (ip), vehicle: saline with Tween-80
  T/C: 101 % of control and 112 % of control
[5]
  T/C: 100 % of control and 103 % of control

## O=S(=O)(CS(=O)(=O)c1ccc(Br)cc1)c1ccc(Br)cc1
[14]
  T/C: 102 % of control
[15]
  T/C: 107 % of control
[16]
  T/C: 102 % of control

— PubChem BioAssay AID330 (DTP/NCI, 2004)
